Source: a melting point compilation (Tetko et al.; mined from patent text by program, amines drawn as free bases though some values may be those of a salt)

| SMILES | melting point [°C] |
| --- | --- |
| Nc1ccc(Oc2ccc(Oc3ccc(N)c(O)c3)cc2)cc1O | > 220 |
| COc1ccc(S(=O)(=O)C2CC(=O)NC2=O)cc1 (stereo not drawn) | 144 to 146 |
| CC(C)(C)c1cc(CCc2ccccc2NC(=O)NC2CCN(Cc3ccncc3)CC2)cc(C(C)(C)C)c1O | 156 to 158 |
| Cc1cccc(C)c1NC(=O)N1CCCN(C(C)C)C1 | 138 to 139 |
| NC(=O)CN1CC2C=CC1C2 (stereo not drawn) | 74 to 96 |
| COCCCOc1ccc(/C=C(\C)C(=O)O)c(Oc2ncc(Cl)cc2Cl)c1 | 128 to 130 |
| CC(=O)N[C@@H](CO)C(=O)NCc1ccccc1 | 147 to 148 |
| CC(C(=O)O)c1ccc2[nH]ncc2c1 (stereo not drawn) | 91 to 96 |
| O=C1CC(c2cccc(-n3ccnc3)c2)=Nc2ccc(C3CC3)cc2N1 | 198 to 200 |
| COC(=O)C=Cc1cc(F)ccc1C(=O)O | 151 to 153 |
| C[C@]1(O)c2ccccc2CC[C@H]1O (relative stereo) | 75 |
| Cc1c(N(C)C)ccc([N+](=O)[O-])c1CO | 42 to 43 |
| COC(=O)C1Cc2c([nH]c3ccccc23)C(c2cccc(Cl)c2)N1 (stereo not drawn) | 150 to 160 |
| CC(=O)N1CCN(c2cc3nc(C(C)(C)C)sc3cc2N=C=S)CC1 | 100 to 102 |
| CCCCCCC(C(=O)O)n1ccc2cc(-c3cccc(OC)c3C(=O)O)ccc21 (stereo not drawn) | 80 to 90 |
| CC(O)C(O)Cc1cc(C(N)=O)ccc1C(N)=O (stereo not drawn) | 130 |
| N#Cc1c[nH]c2cc(N3CCC(N4CCCC4)CC3)c([N+](=O)[O-])cc2c1=O | 232 to 235 |
| COC(=O)c1cc(N)nc(-c2ccc(Cl)c(OC)c2F)n1 | 188 to 190 |
| CCOC(=O)c1ccc2cc(OC(=S)N(C)C)ccc2c1 | 128 to 130 |
| CCCCC1(O)C(C)=CC(=O)CC1(C)C (stereo not drawn) | 90 to 93 |
| O=C1C=CC2(C=C1)N=C(N1CCN(Cc3cccc(C(F)(F)F)c3)CC1)C=C2c1ccccc1 | 135 |
| O=C(Nc1ccc(C(=O)N2C[C@@H]3CCCN3C(=S)c3ccccc32)cc1)c1ccccc1-c1ccccc1 | 234 to 236 |
| CSc1cc(C(F)(F)F)ccc1C(=O)CC(=O)C1CC1 | 64 |
| CC1(C)CC(O)CC(C)(C)N1OC1C=CCCC1 (stereo not drawn) | 65 to 66.5 |
| CC(=O)C1CC(c2ccccc2)CCC1=O (stereo not drawn) | 53 to 54 |
| CC(C)(C)OC(=O)NCC1CCn2c(cc3ccccc32)C1 (stereo not drawn) | 80 to 85 |

| SMILES | melting point [°C] |
| --- | --- |
| C[C@@H](NC(=CC(=O)OC(C)(C)C)Cc1cc(F)c(F)cc1F)c1ccccc1 | 76 |
| CC(C)(NCCONC(C)(C)C(=O)CCn1ccnc1[N+](=O)[O-])C(=O)CCn1ccnc1[N+](=O)[O-] | 90 to 92 |
| CCCCc1nc(S(=O)c2ccccc2)c(C(=O)O)n1Cc1ccc(-c2ccccc2C(=O)O)cc1 (stereo not drawn) | 195 |
| CCCc1c(OCCCOc2ccc(Cl)cc2)ccc2c1OC(CCC(=O)O)(CCC(=O)O)CC2=O | 133 to 134 |
| C=CCC1Oc2ccccc2-c2c(OC)cc3c(c21)C(C)=CC(C)(C)N3 (stereo not drawn) | 84 to 86 |
| CN1C(=O)C2(COc3cc4c(cc32)OCCO4)c2c(C(N)=O)cccc21 (stereo not drawn) | > 250 |
| FC(F)(F)c1ccc(CN2CCNc3ncc(I)cc32)o1 | 153 to 154 |
| Cc1ccc(Nc2nc(C)c(-c3nc4ccccc4c(=O)n3-c3ccc(Cl)cc3)s2)cc1 | > 275 |
| COc1cc(C2C3=C(COC3=O)N(c3cc(OC)c(OC)c(OC)c3)c3cc4c(cc32)OCO4)cc(OC)c1OC (stereo not drawn) | > 260 |
| O=c1nc(-c2ccccn2)sc2ccc(O)cc12 | 313 to 315 |
| CC(=O)C1CCC2C3CCC4CC(O)C(O)CC4(C)C3C(=O)CC12C (stereo not drawn) | 194 to 198 |
| Cc1cc(Cl)ccc1OCC(=O)Nc1ccc(S(N)(=O)=O)cc1 | 218 to 220 |
| Cc1c(-c2ccncc2)sc(-c2ccncc2)c1C(C)O (stereo not drawn) | 155 to 157 |
| Cc1c(C(=O)Nc2cc(Cl)c(N3CCC(N4CCOCC4)CC3)c(Cl)c2)cnn1-c1ccc(C(F)(F)F)cc1 | 252 to 254 |
| Cc1ccc(S(=O)(=O)n2ccc3c2CC(c2ccccc2)CC3=O)cc1 (stereo not drawn) | 118 to 120 |
| O=C(O)C1=CC2=C(C(=O)C1)N1C=CC=CC1=CS2 | 222 |
| CC(C)N(CCCC1CCN(CCNC(=O)N2c3cc(Cl)ccc3C(=O)Nc3cccnc32)CC1)C(C)C | 175 to 176 |
| COc1cn([C@H](C)c2cccc3ccccc23)c(=O)o1 | 89 to 91 |
| O=C(Nc1cccc([N+](=O)[O-])c1)c1ccccc1SSc1ccccc1C(=O)Nc1cccc([N+](=O)[O-])c1 | > 270 |
| COC(=O)C(C)(C)c1ccc(Cl)c([N+](=O)[O-])c1 | 160 to 161 |
| COc1cccc(Cc2cc(OC)ccc2O)c1 | 116 to 118 |
| COC(=O)c1ccc(C(C)(C)CO)cc1 | 44 to 45 |
| CC(=O)N[C@@H](CSC(=O)C(C)(C)C)C(=O)NCCSC(=O)C(C)(C)C | 109 to 111 |
| Cc1ccc(C(=O)N2CCCC(c3ccc(Cl)cc3)=N2)cc1 | 163 to 166 |
| CC(O)CCNC(=O)C1CCC(Nc2nccc(-n3ncc4ccccc43)n2)CC1 (stereo not drawn) | 203 to 204 |
| C=C(Br)Cc1cccs1 | 69 to 71 |

| SMILES | melting point [°C] |
| --- | --- |
| CC(=O)Oc1cc(-c2ccccc2)oc(=O)c1Sc1ccccc1C(C)C | 113 to 115 |
| Cc1cccc(C)c1NC(=O)CCNCCNC(C)C | 69.5 |
| CCCC(=O)N(Cc1ccc(-c2ccccc2-c2nc(=O)s[nH]2)cc1)c1sc(C)cc1C(=O)OC | 131 to 132 |
| N#CC1=C(c2ccccc2)Nc2n[nH]cc2C1c1cccc2c1OCCC2 (stereo not drawn) | 255 |
| CC(=O)N1CCCC1n1nccc1-c1ccc(Oc2ccc(F)cc2)cc1 (stereo not drawn) | 90 to 95 |
| COC(=O)c1ccc2c(c(C)nn2C)c1C1=NC(C)(C(C)C)C(=O)N1 (stereo not drawn) | 130 to 150 |
| CON=Cc1ccc(-c2cc(F)cc(F)c2NC(=O)c2c(C)nn(C)c2F)cc1 | 164 to 167 |
| CCCc1nc2c(N)nc3cc(OCc4ccccc4OC)ccc3c2n1CC(C)C | 205 to 206 |
| OCc1cn(-c2cccc(SC(F)(F)F)c2)cn1 | 73 to 75 |
| CCNc1nc(Cl)c(Cl)c(N2CCN(CC[C@H]3CC[C@H](NC(=O)OC(C)(C)C)CC3)CC2)n1 | 197 to 199 |
| O=C(O)CCc1oc(Sc2ccccc2)nc1-c1ccc(Cl)cc1 | 156 to 157 |
| CC(OC(=O)OC1CCCCC1)OC(=O)C1(C(=O)OC(C)OC(=O)OC2CCCCC2)Oc2ccc(C[C@@H](C)NC[C@H](O)c3cccc(Cl)c3)cc2O1 (stereo partly drawn) | 78 to 81 |
| Cc1ccc(C)n1CCNC(N)=O | 139 to 141 |
| Cc1cc(C(=O)NC2=NC(C)CC2(c2ccccc2)c2ccccc2)[nH]n1 (stereo not drawn) | 221 to 223 |
| O=c1ccn(-c2cc3[nH]c(=O)c(=O)[nH]c3cc2F)cc1 | > 300 |
| O=c1ccc(-c2c(-c3ccccc3)nn3ccccc23)nn1C1CCN(Cc2ccccc2)CC1 | 184 to 185 |
| CSCC(C)Nc1nccc(-c2ccnc(Cl)c2)n1 (stereo not drawn) | 103 to 106 |
| CC1(C)NC(=O)c2ccc(OCCBr)cc2O1 | 156 to 158 |
| COc1cc(/C=C/CO)ccc1OCc1coc(-c2ccccc2)n1 | 113 to 114 |
| C=CCc1cc(C(=O)OC)ccc1-c1ccc(OC)c(OC)c1 | 99 to 103 |
| CCn1c(=O)c(-c2c(Cl)cccc2Cl)cc2cnc(N)nc21 | 207 to 209 |
| Cc1cc(OCc2ccc(-c3ccc(C(F)(F)F)cc3)nc2)ccc1OC(C)(C)C(=O)O | 149 to 151 |
| Cc1ccc(C)n1Nc1ccc(N2CCSCC2)nn1 | 203 |
| CNC(=S)C1(c2ccncc2)CCCCC1=O (stereo not drawn) | 182 to 183 |
| NS(=O)(=O)C1(c2ncc(C(F)(F)F)cc2Cl)C=CC(Cl)=CC1Cl (stereo not drawn) | 125 to 126 |
| NC(=O)Oc1ccccc1CCCCC#CCSCC#CCCCCc1ccccc1OC(N)=O | 63 |

| SMILES | melting point [°C] |
| --- | --- |
| COCCOc1ccc(C=O)cc1O | 74 to 75 |
| CS(=O)(=O)Nc1ccc(Sc2cnc(N)s2)cc1 | 185 to 187 |
| CCOC(=O)c1cnc(OC)nc1Cl | 26 to 28 |
| O=C(O)C1=CSC2CC(=O)N12 (stereo not drawn) | 235 |
| CCCCn1c(C)c(C2(c3c(C)n(CCCC)c4ccccc34)NNC(=O)c3ccccc32)c2ccccc21 | 206 |
| CCN(CC)C(=O)Cn1c(-c2ccc(C(F)(F)F)cc2)nc2cccnc21 | 140 to 142 |
| O=C1OC(=O)c2c(Cl)ccc(Cl)c21 | 187 to 190 |
| CCCCc1nc2sc(C(=O)O)cc2n1Cc1ccc(-c2ccccc2C(=O)O)cc1 | 264 |
| Cc1ccc2cccc(OCc3c(Cl)ccc(N(C)C(=O)CN4C(=O)c5ccccc5C4=O)c3Cl)c2n1 | 204 |
| CCC(C)Nc1cc(-c2ccc(Cl)cc2)nc2nn(C)cc12 (stereo not drawn) | 208 to 209 |
| CCOC(=O)c1cc(Br)c(C(=O)OCC)cc1Cl | 125 |
| CN(C)c1cccc(OCC(=O)NCCO[N+](=O)[O-])c1 | 62 to 63 |
| C#CCn1nnc(SC(c2ccccc2)c2ccccc2)n1 | 85 to 86 |
| Cc1c(Cl)cc(C(C)(C)C)c(O)c1-c1nc2cc(C#N)ccc2[nH]1 | 258 |
| Cc1cn(C(C)(C)C(=O)N(C)C)nc1-c1cccc(Cl)c1 | 144 to 146 |
| COC(=O)NC1(C)CN(C(=O)Nc2ccc(C(F)(F)F)cc2)N=C1c1ccc(Cl)cc1 (stereo not drawn) | 179 to 181 |
| CCOc1ccnc(C(C)NC(=O)Nc2ccc(Br)cn2)c1F (stereo not drawn) | 143 to 145 |
| Cc1cc(Cc2ccccc2)c(NCc2ccccn2)c(=O)n1CC(=O)O | 63 |
| CN(C)C(=O)CCC(=O)c1ccccc1 | 56 to 58 |
| COc1ccccc1-c1cc2c(ccn2C)c2c1C(=O)NC2=O | 243 to 245 |
| NS(=O)(=O)c1ccc2nc(C(F)(F)F)[nH]c(=O)c2c1 | 311 to 314 |
| CC(=O)C1CC2CCC1(COC(=O)Oc1ccccc1)CC2 (stereo not drawn) | 74 to 75 |
| CC(F)C(C)(N)C(=O)O (stereo not drawn) | 226 |
| N#CCCN(CCC#N)CCC#N | 59 to 61 |
| Cc1c[nH]c2c([N+](=O)[O-])cccc2c1=O | 235 to 243 |
